Laboratory results reported in patent US10710992B2, “Substituted pyridinones as bromodomain inhibitors” (Zenith Epigenetics Ltd., priority 2014, dated 2020).

Tests used:
[1] = molecular target: T1, Brd4 bromodomain 1 (BRD4(1)) (Homo sapiens, UniProt O60885); experiment: Inhibition of tetra-acetylated histone H4 binding to BET bromodomain (HTRF/FRET); details: His-tagged bromodomain 200 nM, tetra-acetylated histone H4 peptide, 2 h room temperature
T1 construct: made in house; host or cells: E. coli BL21(DE3)
Method: Proteins were cloned and overexpressed with a N-terminal 6× His tag, then purified by nickel affinity followed by size exclusion chromatography. Briefly, E. coli BL21(DE3) cells were transformed with a recombinant expression vector encoding N-terminally Nickel affinity tagged bromodomains from Brd2, Brd3, Brd4. Cell cultures were incubated at 37° C. with shaking to the appropriate density and induced overnight with IPTG. The supernatant of lysed cells was loaded onto Ni-IDA column for purification. Eluted protein was pooled, concentrated and further purified by size exclusion chromatography. Fractions representing monomeric protein were pooled, concentrated, aliquoted, and frozen at −80° C. for use in subsequent experiments.
Binding of tetra-acetylated histone H4 and BET bromodomains was confirmed by a Homogenous Time Resolved Fluorescence Resonance Energy Transfer (HTRF®) method. N-terminally His-tagged bromodomains (200 nM) and biotinylated tetra-acetylated historic H4 peptide (25-50 nM, Millipore) were incubated in the presence of Europium Cryptate-labeled streptavidin (Cisbio Cat. #610SAKLB) and XL665-labeled monoclonal anti-His antibody (Cisbio Cat. #61HISXLB) in a white 96 well microtiter plate (Greiner). For inhibition assays, serially diluted test compound was added to these reactions in a 0.2% final concentration of DMSO. Duplicate wells were used for each concentration tested. Final buffer concentrations were 30 mM HEPES pH 7.4, 30 mM NaCl, 0.3 mM CHAPS, 20 mM phosphate pH 7.0, 320 mM KF, 0.08% BSA. After a 2 h incubation at room temperature, fluorescence was measured at 665 and 620 nm with a SynergyH4 plate reader (Biotek). The binding inhibitory activity was shown by a decrease in 665 nm relative to […] fluorescence. IC50 values were determined from a dose response curve.

[2] = system: c-myc in Human AML MV4-11 cells; experiment: Inhibition of cMYC expression in cancer cell lines (mRNA, real-time PCR); format: cell-based; details: 3 h, cMYC mRNA normalized to Cyclophilin; for IC50: Homo sapiens
Method: MV4-11 cells (CRL-9591) were plated at a density of 2.5×10^4 cells per well in 96 well U-bottom plates and treated with increasing concentrations of test compound or DMSO (0.1%) in IMDM media containing 10% FBS and penicillin/streptomycin, and incubated for 3 h at 37° C. Triplicate wells were used for each concentration. Cells were pelleted by centrifugation and harvested using the mRNA Catcher PLUS kit according to manufacturer's instructions. The eluted mRNA isolated was then used in a one-step quantitative real-time PCR reaction, using components of the RNA UltraSense™ One-Step Kit (Life Technologies) together with Applied Biosystems TaqMan® primer-probes for cMYC and Cyclophilin. Real-time PCR plates were run on a ViiA™ 7 real time PCR machine (Applied Biosystems), data was analyzed, normalizing the Ct values for cMYC to an internal control, prior to determining the fold expression of each sample, relative to the control.

Human AML MV-4-11 cells = experiment: Inhibition of cell proliferation in cancer cell lines (CellTiter Aqueous One); format: cell-based; details: MV4-11 cells, 72 h; for IC50: Homo sapiens
Method: MV4-11 cells (CRL-9591) were plated at a density of 5×10^4 cells per well in 96 well flat bottom plates and treated with increasing concentrations of test compound or DMSO (0.1%) in IMDM media containing 10% FBS and penicillin/streptomycin. Triplicate wells were used for each concentration and a well containing only media was used as a control. Plates were incubated at 37° C., 5% CO2 for 72 h before adding 20 μL of the CellTiter Aqueous One Solution (Promega) to each well and incubated at 37° C., 5% CO2 for an additional 3-4 h. The absorbance was read at 490 nm in a spectrophotometer and the percentage of cell titer relative to DMSO-treated cells was calculated after correcting for background by subtracting the blank well's signal. IC50 values were calculated using the GraphPad Prism software.

hIL-6 mRNA = experiment: Inhibition of hIL-6 mRNA transcription in LPS-stimulated U937 cells; format: cell-based; details: Homo sapiens, U-937; PMA-differentiated U937 cells, 1 h pretreatment, LPS 1 ug/mL, 3 h; read-out: IL-6 activity
Method: Human leukemic monocyte lymphoma U937 cells (CRL-1593.2) were plated at a density of 3.2×10^4 cells per well in a 96-well plate in 100 μL RPMI-1640 containing 10% FBS and penicillin/streptomycin, and differentiated into macrophages for 3 days in 60 ng/mL PMA ([…]) at 37° C. in 5% CO2 prior to the addition of compound. The cells were pretreated for 1 h with increasing concentrations of test compound in 0.1% DMSO prior to stimulation with 1 ug/mL lipopolysaccharide from Escherichia coli. Triplicate wells were used for each concentration. The cells were incubated at 37° C., 5% CO2 for 3 h before the cells were harvested. At time of harvest, media was removed and cells were rinsed in 200 μL PBS. Cells were harvested using the mRNA Catcher PLUS kit according to manufacturer's instructions. The eluted mRNA was then used in a one-step quantitative real-time PCR reaction using components of the RNA UltraSense™ One-Step Kit (Life Technologies) together with Applied Biosystems TaqMan® primer-probes for hIL-6 and Cyclophilin. Real-time PCR plates were run on a ViiA™ 7 real time PCR machine (Applied Biosystems), data was analyzed, normalizing the Ct values for hIL-6 to an internal control, prior to determining the fold expression of each sample, relative to the control.

hIL-17 mRNA = experiment: Inhibition of hIL-17 mRNA transcription in OKT3-stimulated peripheral blood mononuclear cells; format: cell-based; details: human PBMC, 1 h pretreatment, OKT3 antibody, 6 h; read-out: IL-17 activity
Method: Human peripheral blood mononuclear cells were plated (2.0×10^5 cells per well) in a 96-well plate in 45 μL. OpTimizer T Cell expansion media (Life Technologies) containing 20 ng/ml IL-2 and penicillin/streptomycin. The cells were treated with increasing concentrations of the test compound or DMSO (0.1%), and incubated at 37° C., 5% CO2 for 1 h before addition of 10× stock OKT3 antibody at 10 ug/ml in media. Triplicate wells were used for each concentration. Cells were incubated at 37° C., 5% CO2 for 6 h before the cells were harvested. At time of harvest, cells were pelleted by centrifugation at 800 rpm for 5 min. Cells were harvested using the mRNA Catcher PLUS kit according to manufacturer's instructions. The eluted mRNA was then used in a one-step quantitative real-time PCR reaction, using components of the RNA UltraSense™ One-Step Kit (Life Technologies) together with Applied Biosystems TaqMan® primer-probes for hIL-17 and Cyclophilin. Real-time PCR plates were run on a ViiA™ 7 real time PCR machine (Applied Biosystems), data was analyzed, normalizing the Ct values for hIL-17 to an internal control, prior to determining the fold induction of each unknown sample, relative to the control.

| IC50 [1] [nM] | IC50 (Human AML MV-4-11 cells) [nM] | IC50 (hIL-6 mRNA) [nM] | IC50 (hIL-17 mRNA) [nM] | Compound | IC50 [2] [nM] | c-myc activity [2] | Cell Proliferation activity (Human AML MV-4-11 cells) |
| --- | --- | --- | --- | --- | --- | --- | --- |
| ≤ 300 | 300 to 3000 | 300 to 3000 | 300 to 3000 | Cc1noc(C)c1-c1c[nH]c(=O)c(NCc2ccccc2)c1 [Example 4, 3-(benzylamino)-5-(3,5-dimethylisoxazol-4-yl)pyridin-2(1H)-one] | 300 to 3000 |  |  |
| 300 to 3000 | 3000 to 30000 | 300 to 3000 |  | Cc1noc(C)c1-c1c[nH]c(=O)c(OCc2ccccc2)c1 [Example 14, 3-(benzyloxy)-5-(3,5-dimethylisoxazol-4-yl)pyridin-2(1H)-one] | 3000 to 30000 |  |  |
| ≤ 300 | 3000 to 30000 | 300 to 3000 | 300 to 3000 | Cc1noc(C)c1-c1c[nH]c(=O)c(NCc2ccccn2)c1 [Example 17, 5-(3,5-dimethylisoxazol-4-yl)-3-((pyridin-2-ylmethyl)amino)pyridin-2(1H)-one] | 300 to 3000 |  |  |
| ≤ 300 | 300 to 3000 | 300 to 3000 | 300 to 3000 | Cc1noc(C)c1-c1c[nH]c(=O)c(NC(C)c2ccccn2)c1 (stereo not shown) [Example 20, 5-(3,5-dimethylisoxazol-4-yl)-3-((1-(pyridin-2-yl)ethyl)amino)pyridin-2(1H)-one] | 300 to 3000 |  |  |
| ≤ 300 | 300 to 3000 | 300 to 3000 |  | Cc1noc(C)c1-c1c[nH]c(=O)c(NCc2ccc(F)cc2)c1 [Example 21, 5-(3,5-dimethylisoxazol-4-yl)-3-((4-fluorobenzyl)amino)pyridin-2(1H)-one] | 300 to 3000 |  |  |
| ≤ 300 |  | 3000 to 30000 |  | Cc1noc(C)c1-c1c[nH]c(=O)c(NCc2ccc(I)cc2)c1 [Example 24, 5-(3,5-dimethylisoxazol-4-yl)-3-((4-iodobenzyl)amino)pyridin-2(1H)-one] |  | Not Active | Not Active |
| 300 to 3000 | 3000 to 30000 | 300 to 3000 |  | Cc1noc(C)c1-c1c[nH]c(=O)c(OCc2ccc(F)cc2)c1 [Example 27, 5-(3,5-dimethylisoxazol-4-yl)-3-((4-fluorobenzyl)oxy)pyridin-2(1H)-one] | 300 to 3000 |  |  |
| ≤ 300 | 300 to 3000 | 300 to 3000 |  | Cc1noc(C)c1-c1c[nH]c(=O)c(NCc2nccs2)c1 [Example 30, 5-(3,5-dimethylisoxazol-4-yl)-3-((thiazol-2-ylmethyl)amino)pyridin-2(1H)-one] | 3000 to 30000 |  |  |
| 300 to 3000 | 3000 to 30000 | 300 to 3000 |  | Cc1noc(C)c1-c1c[nH]c(=O)c(NCc2ccc3ccccc3c2)c1 [Example 33, 5-(3,5-dimethylisoxazol-4-yl)-3-((naphthalen-2-ylmethyl)amino)pyridin-2(1H)-one] | 3000 to 30000 |  |  |
| ≤ 300 | 300 to 3000 | 300 to 3000 |  | Cc1noc(C)c1Nc1cc(-c2c(C)noc2C)c[nH]c1=O [Example 34, 5-(3,5-dimethylisoxazol-4-yl)-3-((3,5-dimethylisoxazol-4-yl)amino)pyridin-2(1H)-one] | 300 to 3000 |  |  |
| ≤ 300 | 300 to 3000 | 300 to 3000 |  | Cc1noc(C)c1-c1c[nH]c(=O)c(NCc2ccc3ccccc3n2)c1 [Example 35, 5-(3,5-dimethylisoxazol-4-yl)-3-((quinolin-2-ylmethyl)amino)pyridin-2(1H)-one] | 3000 to 30000 |  |  |
| ≤ 300 | 3000 to 30000 | 300 to 3000 |  | Cc1noc(C)c1-c1c[nH]c(=O)c(NCc2ccc(C#N)s2)c1 [Example 36, 5-(((5-(3,5-dimethylisoxazol-4-yl)-2-oxo-1,2-dihydropyridin-3-yl)amino)methyl)thiophene-2-carbonitrile] | 3000 to 30000 |  |  |
| 300 to 3000 |  | 300 to 3000 |  | Cc1noc(C)c1-c1c[nH]c(=O)c(NCc2ncccc2Cl)c1 [Example 37, 3-(((3-chloropyridin-2-yl)methyl)amino)-5-(3,5-dimethylisoxazol-4-yl)pyridin-2(1H)-one] |  | Not Active | Not Active |
| ≤ 300 | 300 to 3000 | ≤ 300 |  | Cc1noc(C)c1-c1c[nH]c(=O)c(NCc2cccc3ncccc23)c1 [Example 39, 5-(3,5-dimethylisoxazol-4-yl)-3-((quinolin-5-ylmethyl)amino)pyridin-2(1H)-one] | 300 to 3000 |  |  |
| 300 to 3000 | 3000 to 30000 | 300 to 3000 |  | Cc1noc(C)c1-c1c[nH]c(=O)c(NCc2nc3ccccc3s2)c1 [Example 40, 3-((benzo[d]thiazol-2-ylmethyl)amino)-5-(3,5-dimethylisoxazol-4-yl)pyridin-2(1H)-one] | 300 to 3000 |  |  |
| 300 to 3000 |  | 3000 to 30000 |  | Cc1ncccc1Oc1cc(-c2c(C)noc2C)cnc1O [Example 43, 5-(3,5-dimethylisoxazol-4-yl)-3-((2-methylpyridin-3-yl)oxy)pyridin-2-ol] |  | Not Active | Not Active |
